Literature values, collected in US12037433B2, “(Co)polymers of hydrophobic monomers and methods of making and use thereof” (BASF SE, priority 2018, dated 2024).

Columns and labels:
[1] = for solubility in water, measured at 20° C.: additional hydrophobic monomers

Row | Compound | Partitioning Coefficient n-octanol/water [log Kow at 25° C.] | Water Solubility at 20° C. [1] [µg/mL] | solubility in water, measured at 20° C. [1] [g/100 g water]
1 | C=C(C)C(=O)OC1CCCCC1 [Cyclohexyl methacrylate (CHMA), Cyclohexyl methacrylate] | 3.54 | 100 | –
2 | C=CC(=O)OCCCCCCCCCCCCCCCCC [Heptadecyl acrylate (C17 A), Heptadecyl acrylate] | 9.2 | 40 | –
3 | C=C(C)C(=O)OCCCCCCCCCCCCCCCCC [Heptadecyl methacrylate (C17 MA), Heptadecyl methacrylate] | 6.5 | 50 | –
4 | C=CC(=O)OCCCCCCCCCCCC [Lauryl Acrylate (LA), Lauryl Acrylate] | 6.13 | 40 | –
5 | C=C(C)C(=O)OCCCCCCCCCCCC [Lauryl Methacrylate (LMA), Lauryl Methacrylate] | 6.45 | 30 | –
6 | C=CC(=O)OCCCCCCCCCCCCCCCCCC [Stearyl Acrylate (SA), Stearyl Acrylate] | 9.28 | – | –
7 | C=C(C)C(=O)OCCCCCCCCCCCCCCCCCC [Stearyl Methacrylate (SMA), Stearyl Methacrylate] | 9.62 | – | –
8 | C=CC=C [butadiene] | – | – | 0.08
9 | C=Cc1ccccc1 [styrene] | – | – | 0.03
10 | C=COC(=O)C(C)(C)C [vinyl neo-pentanoate] | – | – | 0.08
